In PMC7093416, “Selective USP7 inhibition elicits cancer cell killing through a p53-dependent mechanism” (Scientific Reports, 2020):

Columns and labels:
USP7 catalytic domain = target: T1, USP7 catalytic domain (Homo sapiens, UniProt Q93009); experiment: Intact MS / CE-MS labeling of purified USP7 catalytic domain; type: binding; settings: 2.5-fold molar excess compound
T1 construct: catalytic domain (208–560) used were cloned as described; inferred from Ni-NTA purification; made in house; host or cells: E. coli BL21 (DE3)
T1 sequence (Q93009 208-560): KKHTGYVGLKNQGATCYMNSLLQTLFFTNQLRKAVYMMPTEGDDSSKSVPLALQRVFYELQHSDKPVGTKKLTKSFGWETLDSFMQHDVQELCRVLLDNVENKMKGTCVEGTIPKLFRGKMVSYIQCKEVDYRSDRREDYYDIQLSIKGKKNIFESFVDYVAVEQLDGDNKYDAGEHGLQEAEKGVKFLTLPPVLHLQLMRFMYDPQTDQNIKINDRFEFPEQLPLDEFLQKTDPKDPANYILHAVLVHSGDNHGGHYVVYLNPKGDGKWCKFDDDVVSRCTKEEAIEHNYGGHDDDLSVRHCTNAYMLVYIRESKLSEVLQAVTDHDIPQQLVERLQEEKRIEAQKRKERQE
Experimental: Purified USP7 catalytic domain was diluted to 20 μM in 10 μL labeling buffer (20 mM HEPES pH 7.5, 150 mM NaCl, 1 mM TCEP) and incubated for the indicated times with 50 μM (2.5×) compound. After incubation, samples were flash frozen in liquid nitrogen and stored at −80 °C until analysis.
Intact mass analysis was performed by injecting 5 µg USP7 catalytic domain onto a self-packed reversed phase column (1/32” O.D. × 500 um I.D., 5 cm of POROS 10R2 resin). After desalting, protein was eluted with an HPLC gradient (0–100% B in 4 minutes, A = 0.2 M acetic acid in water, B = 0.2 M acetic acid in acetonitrile, flow rate ~30 µL/min) into an LTQ ion trap mass spectrometer (ThermoFisher Scientific, San Jose, CA). Mass spectra were processed using MagTran1.03b2[52].
Peptides were desalted using SP3[53], dried by vacuum centrifugation, and reconstituted in 1% formic acid/50% acetonitrile with 100 mM ammonium acetate. Peptides were then analyzed by CE-MS using a ZipChip CE system and autosampler (908 Devices, Boston, MA) interfaced to a QExactive HF mass spectrometer (ThermoFisher Scientific, San Jose, CA). Peptide solution was loaded for 30 seconds, and the mass spectrometer was operated in data dependent mode and subjected the 5 most abundant ions in each MS scan (60k resolution, 3E6 target, lock mass enabled) to MS/MS (15k resolution, 1E5 target, 100 ms max inject time). […]

[1] = target: T2, USP7 C223A catalytic domain (Homo sapiens, UniProt Q93009, C223A); experiment: Intact MS labeling of USP7 C223A catalytic domain; type: binding; settings: 2.5-fold molar excess, 2 hours
T2 construct: catalytic domain (208–560) used were cloned as described; inferred from Ni-NTA purification; made in house; host or cells: E. coli BL21 (DE3)
T2 sequence (Q93009 208-560 C223A): as the sequence (Q93009 208-560) above, with C16A counted along it
Experimental: The constructs encoding USP7 full length (amino acids 1–1102) and catalytic domain (208–560) used were cloned as described. Both constructs were overexpressed in E. coli BL21 (DE3). Cells were grown at 37 °C to an OD of 0.9, cooled to 16 °C, induced with 500 μM isopropyl-1-thio-D-galactopyranoside (IPTG), incubated overnight at 16 °C, collected by centrifugation, and stored at −80 °C. Cell pellets were sonicated in lysis buffer (25 mM Tris pH 8, 1 M NaCl, and 10 mM BME) supplemented with 10 μg/ml phenylmethanesulfonylfluoride (PMSF) and the resulting lysate was centrifuged at 30,000 xg for 40 min. Ni-NTA beads (Qiagen) were mixed with lysate supernatant for 2 hours, and washed with lysis buffer supplemented with 25 mM imidazole. The bound protein was eluted with lysis buffer supplemented with 300 mM imidazole. […]
Figure S1: Full-length recombinant purified USP7 was pre-incubated with XL041 at the indicated concentrations for the indicated times, then Ub-AMC was added and fluorescence was monitored. […]
Figure S5: MCF7 cells were transfected with the indicated pcDNA constructs for 48 hours, then treated with XL177A at the indicated concentration for 3 hours. Cells were lysed, and FLAG-USP7 target engagement was assessed with the DUB ABP HA-Ub-VS. Densitometry was performed using ImageStudio software and analyzed using Graphpad Prism. […]

labeling of USP7 catalytic domain by MS (USP7 catalytic domain): Quantitative labeling
mass shift with USP7 C223A [1]: no mass shift was detected
SMILES: CN1CCN(CCC(=O)Nc2ccc3c(=O)n(CC4(O)CCN(C(=O)[C@@H](CCCNC(=O)c5ccc6c(Cl)c7c(nc6c5)CCCC7)Cc5ccccc5)CC4)cnc3c2)CC1 [XL177A]
